{
  "source": "PubChem BioAssay AID504507",
  "about": "(The Scripps Research Institute Molecular Screening Center, 2011)",
  "biological_target": "sn-1-specific diacylglycerol lipase ABHD11 (Mus musculus) (UniProt Q8K4F5)",
  "sequence (Q8K4F5 whole entry, looked up)": "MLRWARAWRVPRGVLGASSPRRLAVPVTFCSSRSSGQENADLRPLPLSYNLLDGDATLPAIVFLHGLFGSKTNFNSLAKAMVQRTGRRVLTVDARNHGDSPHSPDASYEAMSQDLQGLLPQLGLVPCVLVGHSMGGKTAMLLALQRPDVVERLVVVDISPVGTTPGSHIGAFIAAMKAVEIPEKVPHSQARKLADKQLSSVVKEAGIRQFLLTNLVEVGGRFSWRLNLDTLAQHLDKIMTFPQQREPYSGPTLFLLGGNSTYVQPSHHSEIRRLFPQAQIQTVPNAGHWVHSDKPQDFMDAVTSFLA",
  "experiment": "mouse ABHD11 inhibitor potency, late-stage follow-up, selectivity assay for LYPLA1 inhibitor project, biochemical, gel-based fluorescent ABPP, set 2 (AID 504507)",
  "conditions": "mouse proteome gel-based ABPP, fluorescent probe labeling",
  "data": [
    {"smiles": "CCC1CCCCN1C(=O)n1ncc(C(O)(c2ccccc2)c2ccccc2)n1", "note": "(configuration not stated)", "values": [
      {"measurement": "IC50", "result": 15, "unit": "nM"}
    ]},
    {"smiles": "COCC1CCCCN1C(=O)n1ncc(C(O)(c2ccccc2)c2ccccc2)n1", "note": "(configuration not stated)", "values": [
      {"measurement": "IC50", "result": 1, "unit": "nM"}
    ]}
  ]
}
